Data published in patent publication US8148373B2, “Compounds” (AstraZeneca AB, priority 2008, dated 2012).
Counter-ions that a name gives are not always drawn.

Assays:
[1] = target: T1, Adrenergic β2 (H292 cells) (Homo sapiens, UniProt P07550); assay: Assay for Adrenergic β2 Mediated cAMP Production (concentration response, AlphaScreen cAMP detection); assay type: cell-based; conditions: for EC50: cAMP production, 60 minutes at room temperature, 300 μM rolipram, read-out: β2 pEC50 (converted); for β2 Intrinsic activity: fraction relative to the maximum activity determined for formoterol
T1 construct: endogenous in cells; host or cells: H292 cells
Method: Assay for Adrenergic β2 Mediated Camp Production
H292 cells are grown in 225 cm2 flasks incubator at 37° C., 5% CO2 in RPMI medium containing 10% (v/v) FBS (foetal bovine serum) and 2 mM L-glutamine.
Adherent H292 cells are removed from tissue culture flasks by treatment with Accutase™ cell detachment solution for 15 minutes. Flasks are incubated for 15 minutes in a humidified incubator at 37° C., 5% CO2. Detached cells are re-suspended in RPMI media (containing 10% (v/v) FBS and 2 mM L-glutamine) at 0.1×10^6 cells per mL. 10000 cells in 100 μL are added to each well of a tissue-culture-treated 96-well plate and the cells incubated overnight in a humidified incubator at 37° C., 5% CO2. The culture media is removed and cells are washed twice with 100 μL assay buffer and replaced with 50 μL assay buffer (HBSS solution containing 10 mM HEPES pH7.4 and 5 mM glucose). Cells are rested at room temperature for 20 minutes after which time 25 μL of rolipram (1.2 mM made up in assay buffer containing 2.4% (v/v) dimethylsulphoxide) is added. Cells are incubated with rolipram for 10 minutes after which time test compounds are added and the cells are incubated for 60 minutes at room temperature. The final rolipram concentration in the assay is 300 μM and final vehicle concentration is 1% (v/v) dimethylsulphoxide. The reaction is stopped by removing supernatants, washing once with 100 μL assay buffer and replacing with 50 μL lysis buffer. The cell monolayer is frozen at −80° C. for 30 minutes (or overnight).
AlphaScreen™ cAMP Detection
The concentration of cAMP (cyclic adenosine monophosphate) in the cell lysate is determined using AlphaScreen™ methodology. The frozen cell plate is thawed for 20 minutes on a plate shaker then 10 μL of the cell lysate is transferred to a 96-well white plate. 40 μL of mixed AlphaScreen™ detection beads pre-incubated with biotinylated cAMP, is added to each well and the plate incubated at room temperature for 3 hours in the dark. The AlphaScreen™ signal is measured using an EnVision spectrophotometer (Perkin-Elmer Inc.) with the recommended manufacturer's settings. cAMP concentrations are determined by reference to a calibration curve determined in the same experiment using standard cAMP concentrations. Concentration response curves for agonists are constructed and data is fitted to a four parameter logistic equation to determine both the pEC50 and Intrinsic Activity. Intrinsic Activity is expressed as a fraction relative to the maximum activity determined for formoterol in each experiment.

[2] = target: T2, human muscarinic acetylcholine M3 receptor (M3-ACh) (Homo sapiens, UniProt P20309); assay: Muscarinic 3 Receptor Binding Assay ([3H]NMS competition, SPA); conditions: [3H]NMS 0.1 nM, CHO-K1 cell membranes, 16 hours at room temperature; read-out: M3 pIC50 (converted)
T2 construct: expressed in transfected cells; host or cells: CHO-K1 (Chinese Hamster Ovary) cell membranes
Method: Muscarinic 3 Receptor Binding Assay
The affinity (pIC50) of compounds binding to the M3 receptor is determined by competition binding of [^3H]N-methyl scopolamine (NMS) to CHO-K1 (Chinese Hamster Ovary) cell membranes expressing the human muscarinic acetylcholine M3 receptor (M3-ACh) in a scintillation proximity assay (SPA) format.
SPA beads are precoated with membranes and then incubated at 2 mg of beads per well with serial dilutions of compounds of the invention, [^3H]NMS at 0.1 nM, quarter Kd (experimentally determined dissociation constant) and assay buffer (20 mM HEPES pH 7.4 containing 5 mM MgCl2). The assay is conducted in a final volume of 200 μL, in the presence of 1% (v/v) dimethyl sulphoxide (DMSO). Total binding of [^3H]NMS is determined in the absence of competing compound and non-specific binding of [^3H]NMS is determined in the presence of 1 μM atropine. The plates are incubated for 16 hours at room temperature and then read on Wallac Microbeta™ using a normalised ^3H protocol. The pIC50, defined as the negative logarithm of the molar concentration of compound required for 50% reduction in specific [^3H]-NMS binding, is determined.

T1 sequence (P07550 whole entry): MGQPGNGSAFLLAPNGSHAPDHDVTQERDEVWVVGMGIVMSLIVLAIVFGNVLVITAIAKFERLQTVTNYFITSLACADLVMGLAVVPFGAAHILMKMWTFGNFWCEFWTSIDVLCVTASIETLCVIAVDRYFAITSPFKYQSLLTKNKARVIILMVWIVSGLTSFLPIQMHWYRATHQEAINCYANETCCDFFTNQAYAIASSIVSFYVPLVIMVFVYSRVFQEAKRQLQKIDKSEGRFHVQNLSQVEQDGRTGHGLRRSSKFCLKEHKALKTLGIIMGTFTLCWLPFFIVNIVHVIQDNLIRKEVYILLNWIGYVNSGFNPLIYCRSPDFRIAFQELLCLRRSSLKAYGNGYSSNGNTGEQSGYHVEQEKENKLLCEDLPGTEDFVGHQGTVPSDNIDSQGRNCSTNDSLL
T2 sequence (P20309 whole entry): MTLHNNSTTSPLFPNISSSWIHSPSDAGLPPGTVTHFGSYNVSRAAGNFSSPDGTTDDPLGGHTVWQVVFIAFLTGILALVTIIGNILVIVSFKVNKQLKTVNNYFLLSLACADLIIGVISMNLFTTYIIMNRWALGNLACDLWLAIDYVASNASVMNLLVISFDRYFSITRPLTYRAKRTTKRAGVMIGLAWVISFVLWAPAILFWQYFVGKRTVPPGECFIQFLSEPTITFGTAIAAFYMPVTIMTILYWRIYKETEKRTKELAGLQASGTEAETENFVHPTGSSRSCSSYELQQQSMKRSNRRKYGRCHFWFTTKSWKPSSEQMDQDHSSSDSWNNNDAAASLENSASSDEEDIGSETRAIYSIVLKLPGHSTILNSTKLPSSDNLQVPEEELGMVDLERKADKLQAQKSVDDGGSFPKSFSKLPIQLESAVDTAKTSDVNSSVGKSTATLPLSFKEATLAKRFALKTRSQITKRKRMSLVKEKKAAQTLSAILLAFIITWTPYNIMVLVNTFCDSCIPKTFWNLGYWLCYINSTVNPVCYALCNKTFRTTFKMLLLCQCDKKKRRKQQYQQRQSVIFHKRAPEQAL

| EC50 [1] [nM] | β2 Intrinsic activity [1] | IC50 [2] [nM] | Structure (SMILES) |
| --- | --- | --- | --- |
| 15.8 | 0.9 | 0.251 | CC(C)c1nc(C(=O)N2CCOC3(CCN(Cc4cccc(CCNC[C@H](O)c5ccc(O)c6[nH]c(=O)ccc56)c4)CC3)C2)cs1 [Example 23, (R)-8-Hydroxy-5-(1-hydroxy-2-(3-((4-(2-isopropylthiazole-4-carbonyl)-1-oxa-4,9-diazaspiro[5.5]undecan-9-yl)methyl)phenethylamino)ethyl)quinolin-2(1H)-one ditrifluoroacetate] |
| 5.01 | 1 | 25.1 | Cc1nc(C(=O)N2CCOC3(CCN(CCOc4cccc(CCNC[C@H](O)c5ccc(O)c6[nH]c(=O)sc56)c4)CC3)C2)cs1 [Example 24, (R)-4-Hydroxy-7-(1-hydroxy-2-(3-(2-(4-(2-methylthiazole-4-carbonyl)-1-oxa-4,9-diazaspiro[5.5]undecan-9-yl)ethoxy)phenethylamino)ethyl)benzo[d]thiazol-2(3H)-one ditrifluoroacetate] |
| 15.8 | 0.8 | 1 | O=C(c1csc(C(F)(F)F)n1)N1CCOC2(CCN(Cc3cccc(CCNC[C@H](O)c4ccc(O)c5[nH]c(=O)ccc45)c3)CC2)C1 [Example 25, (R)-8-Hydroxy-5-(1-hydroxy-2-(3-((4-(2-(trifluoromethyl)thiazole-4-carbonyl)-1-oxa-4,9-diazaspiro[5.5]undecan-9-yl)methyl)phenethylamino)ethyl)quinolin-2(1H)-one ditrifluoroacetate] |
| 7.94 | 1.0 | 1 | Cc1nc(C(=O)N2CCOC3(CCN(CCOc4ccc(CCNC[C@H](O)c5ccc(O)c6[nH]c(=O)sc56)cc4)CC3)C2)cs1 [Example 3, (R)-4-Hydroxy-7-(1-hydroxy-2-(4-(2-(4-(2-methylthiazole-4-carbonyl)-1-oxa-4,9-diazaspiro[5.5]undecan-9-yl)ethoxy)phenethylamino)ethyl)benzo[d]thiazol-2(3H)-one dihydrochloride] |
| 200 | 0.9 | 1 | CC(C)c1nc(C(=O)N2CCOC3(CCN(CCCCCC(C)(C)CNC[C@H](O)c4ccc(O)c5[nH]c(=O)sc45)CC3)C2)cs1 [Example 102, (R)-4-Hydroxy-7-(1-hydroxy-2-(7-(4-(2-isopropylthiazole-4-carbonyl)-1-oxa-4,9-diazaspiro[5.5]undecan-9-yl)-2,2-dimethylheptylamino)ethyl)benzo[d]thiazol-2(3H)-one formate] |
| 5.01 | 0.9 | 7.94 | CC(C)c1nc(C(=O)N2CCOC3(CCN(Cc4cc(Cl)cc(CCNC[C@H](O)c5ccc(O)c6[nH]c(=O)sc56)c4)CC3)C2)cs1 [Example 52, (R)-7-(2-(3-Chloro-5-((4-(2-isopropylthiazole-4-carbonyl)-1-oxa-4,9-diazaspiro[5.5]undecan-9-yl)methyl)phenethylamino)-1-hydroxyethyl)-4-hydroxybenzo[d]thiazol-2(3H)-one ditrifluoroacetate] |
| 6.31 | 0.8 | 7.94 | CC(C)c1ncc(C(=O)N2CCOC3(CCN(CCCCCCCCCNC[C@H](O)c4ccc(O)c5[nH]c(=O)sc45)CC3)C2)s1 [Example 115, (R)-4-Hydroxy-7-(1-hydroxy-2-(9-(4-(2-isopropylthiazole-5-carbonyl)-1-oxa-4,9-diazaspiro[5.5]undecan-9-yl)nonylamino)ethyl)benzo[d]thiazol-2(3H)-one formate] |
| 2.51 | 1 | 3.16 | CC(C)c1nc(C(=O)N2CC(F)(F)OC3(CCN(Cc4cccc(CCNC[C@H](O)c5ccc(O)c6[nH]c(=O)ccc56)c4)CC3)C2)cs1 [Example 44, (R)-5-(2-(3-((2,2-Difluoro-4-(2-isopropylthiazole-4-carbonyl)-1-oxa-4,9-diazaspiro[5.5]undecan-9-yl)methyl)phenethylamino)-1-hydroxyethyl)-8-hydroxyquinolin-2(1H)-one ditrifluoroacetate] |
| 3.98 | 1.0 | 0.398 | CC(C)c1nc(C(=O)N2CCOC3(CCN(Cc4csc(CCNC[C@H](O)c5ccc(O)c6[nH]c(=O)sc56)c4)CC3)C2)cs1 [Example 278, (R)-4-hydroxy-7-(1-hydroxy-2-(2-(4-((4-(2-isopropylthiazole-4-carbonyl)-1-oxa-4,9-diazaspiro[5.5]undecan-9-yl)methyl)thiophen-2-yl)ethylamino)ethyl)benzo[d]thiazol-2(3H)-one ditrifluoroacetate] |
| 5.01 | 0.9 | 0.794 | CC(C)c1nc(C(=O)N2CCOC3(CCN(Cc4cccc(CCNC[C@H](O)c5ccc(O)c6[nH]c(=O)sc56)c4F)CC3)C2)cs1 [Example 48, (R)-7-(2-(2-Fluoro-3-((4-(2-isopropylthiazole-4-carbonyl)-1-oxa-4,9-diazaspiro[5.5]undecan-9-yl)methyl)phenethylamino)-1-hydroxyethyl)-4-hydroxybenzo[d]thiazol-2(3H)-one ditrifluoroacetate] |
| 31.6 | 0.9 | 2 | CC(C)c1csc(C(=O)N2CCOC3(CCN(Cc4cccc(CCNC[C@H](O)c5ccc(O)c6[nH]c(=O)ccc56)c4)CC3)C2)n1 [Example 76, (R)-8-Hydroxy-5-(1-hydroxy-2-(3-((4-(4-isopropylthiazole-2-carbonyl)-1-oxa-4,9-diazaspiro[5.5]undecan-9-yl)methyl)phenethylamino)ethyl)quinolin-2(1H)-one ditrifluoroacetate] |
| 7.94 | 0.8 | 10 | CC(C)Cc1nc(C(=O)N2CCOC3(CCN(Cc4cccc(CCNC[C@H](O)c5ccc(O)c6[nH]c(=O)sc56)c4F)CC3)C2)cs1 [Example 72, (R)-7-(2-(2-Fluoro-3-((4-(2-isobutylthiazole-4-carbonyl)-1-oxa-4,9-diazaspiro[5.5]undecan-9-yl)methyl)phenethylamino)-1-hydroxyethyl)-4-hydroxybenzo[d]thiazol-2(3H)-one ditrifluoroacetate] |
| 3.16 | 0.9 | 15.8 | CC(C)c1nc(C(=O)N2CC(F)(F)OC3(CCN(Cc4cc(CCNC[C@H](O)c5ccc(O)c6[nH]c(=O)ccc56)cs4)CC3)C2)cs1 [Example 51, (R)-5-(2-(2-(5-((2,2-Difluoro-4-(2-isopropylthiazole-4-carbonyl)-1-oxa-4,9-diazaspiro[5.5]undecan-9-yl)methyl)thiophen-3-yl)ethylamino)-1-hydroxyethyl)-8-hydroxyquinolin-2(1H)-one ditrifluoroacetate] |
| 63.1 | 1 | 2.51 | Cc1nc(C(=O)N2CCOC3(CCN(CCOc4cc(C)c(CNC[C@H](O)c5ccc(O)c6[nH]c(=O)sc56)cc4C)CC3)C2)cs1 [Example 18, (R)-7-(2-(2,5-Dimethyl-4-(2-(4-(2-methylthiazole-4-carbonyl)-1-oxa-4,9-diazaspiro[5.5]undecan-9-yl)ethoxy)benzylamino)-1-hydroxyethyl)-4-hydroxybenzo[d]thiazol-2(3H)-one ditrifluoroacetate] |
